# Experiment: recombinant UMI read abundance after kanamycin selection (control-corrected) (log10(CPM+1)); higher = more efficient recombination; extreme values may be limits of the assay; sequences stand for … in AGTGCAGAGAAAATCGGCCAGTTTTCTCTGCCTGCAGTCCGCATGCCGTGGGACCCCTTGGGTTCTAACCTGTTGCCTAGATTTATGCAGCGGACTGCCTTTCTCCCAAAGTGATAAACCGG…AGGTTGGTTTCACT; site = the 11-nt donor
# Summary of the method: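 The measure is log10(CPM+1) for recombinant UMIs. These were PCR-amplified across the donor–target junction and sequenced after Escherichia coli carrying a donor and donor-binding-loop pair library and a target plasmid with T7-inducible IS621 bridge recombinase was plated on IPTG (0.07 mM) plus kanamycin or unselected. CPM were averaged over two replicates and scaled by control-derived factors.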
# 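Further: IS621 bridge recombinase in Escherichia coli cells against a fixed T5 target plasmid.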
row,Sequence,recombinant UMI read abundance (log10)
1,GCCACGCCATGGACCGGTTTTCCCGGTAATCCGTATTTGTA (site GCCACACCTTA),0.00375
2,GCCACGCCATGGACCGGTTTTCCCGGTAATCCGTATTTGTA (site GCCACCCCTTA),0.0213
3,GCCACGCCATGGACCGGTTTTCCCGGTAATCCGTATTTGTA (site GCCACGACTTA),0.00736
4,GCCACGCCATGGACCGGTTTTCCCGGTAATCCGTATTTGTA (site GCCACGCCTAA),0.0376
5,GCCACGCCATGGACCGGTTTTCCCGGTAATCCGTATTTGTA (site GCCACGCCTCA),0.00817
6,GCCACGCCATGGACCGGTTTTCCCGGTAATCCGTATTTGTA (site GCCACGCCTGA),0
7,GCCACGCCATGGACCGGTTTTCCCGGTAATCCGTATTTGTA (site GCCACGCCTTA),0.289
8,GCCACGCCATGGACCGGTTTTCCCGGTAATCCGTATTTGTA (site GCCACGCCTTC),0.00289
9,GCCACGCCATGGACCGGTTTTCCCGGTAATCCGTATTTGTA (site GCCACGCCTTG),0.0133
10,GCCACGCCATGGACCGGTTTTCCCGGTAATCCGTATTTGTA (site GCCACGCCTTT),0.0209
11,GCCACGCCATGGACCGGTTTTCCCGGTAATCCGTATTTGTA (site GCCACGGCTTA),0.0146
12,GCCACGCCATGGACCGGTTTTCCCGGTAATCCGTATTTGTA (site GCCACGTCTTA),1.45
13,GCCACGCCATGGACCGGTTTTCCCGGTAATCCGTATTTGTA (site GCCACTCCTTA),0
14,GCCACGCCATGGACCGGTTTTCCCGGTAATCCGTATTTGTA (site GCCAGGCCTTA),0.013
15,GCCACGCCATGGACCGGTTTTCCCGGTAATCCGTATTTGTA (site GCCATGCCTTA),0.465
16,GCCACGCCATGGACCGGTTTTCCCGGTAATCCGTATTTGTA (site GCCCCGCCTTA),0.00659
17,GCCACGCCATGGACCGGTTTTCCCGGTAATCCGTATTTGTA (site GCCGCGCCTTA),0.00414
18,GCCACGCCATGGACCGGTTTTCCCGGTAATCCGTATTTGTA (site GCCTCGCCTTA),0.183
19,GCCACGCCATGGACCGGTTTTCCCGGTAATCCGTATTTGTA (site GCGACGCCTTA),0.00719
20,GCCACGCCATGGACCGGTTTTCCCGGTAATCCGTATTTGTA (site GCTACGCCTTA),0.0265
21,GCCACGCCATGGACCGGTTTTCCCGGTAATCCGTATTTGTA (site GGCACGCCTTA),0.204
22,GCCACGCCATGGACCGGTTTTCCCGGTAATCCGTATTTGTA (site GTCACGCCTTA),0.00531
23,GCCACGCCATGGACCGGTTTTCCCGGTAATCCGTATTTGTA (site TCCACGCCTTA),0.00575
24,GCCACTCCATGGACCGGTTTTCCCGGTAATCCGTATTTGGG (site GCCACTCCTCC),0.0141
25,GCCACTCCATGGACCGGTTTTCCCGGTAATCCGTATTTGTA (site GCCACACCTTA),0.0288

row,Sequence,recombinant UMI read abundance (log10)
1,GCCACTCCATGGACCGGTTTTCCCGGTAATCCGTATTTGTA (site GCCACCCCTTA),0.0122
2,GCCACTCCATGGACCGGTTTTCCCGGTAATCCGTATTTGTA (site GCCACGCCTTA),0.00354
3,GCCACTCCATGGACCGGTTTTCCCGGTAATCCGTATTTGTA (site GCCACTCCTTA),1.35
4,GCCAGGCCATGGACCGGTTTTCCCGGTAATCCGTATTTGAA (site GCCAGGCCTTT),0.0165
5,GCCCAATCATGGACCGGTTTTCCCGGTAATCCGTATTTGGT (site GCCCAATCTAC),1.53
6,GCCCAGCCATGGACCGGTTTTCCCGGTAATCCGTATTTGGT (site GCCCAGCCTAC),0.0164
7,GCCCGCTCATGGACCGGTTTTCCCGGTAATCCGTATTTGCG (site GCCCGCTCTCG),2.44
8,GCCCGTACATGGACCGGTTTTCCCGGTAATCCGTATTTGCT (site GCCCGTACTAG),2.32
9,GCCCTTGCATGGACCGGTTTTCCCGGTAATCCGTATTTGAC (site GCCCTTGCTGT),1.06
10,GCCGATGCATGGACCGGTTTTCCCGGTAATCCGTATTTGGA (site GCCGATGCTTC),1.45
11,GCCGCGGCATGGACCGGTTTTCCCGGTAATCCGTATTTGGA (site GCCGCGGCTTC),0.468
12,GCCTACACATGGACCGGTTTTCCCGGTAATCCGTATTTGTC (site GCCTACACTGA),1.8
13,GCCTACCCATGGACCGGTTTTCCCGGTAATCCGTATTTGGC (site GCCTACCCTGC),0
14,GCCTATGCATGGACCGGTTTTCCCGGTAATCCGTATTTGTC (site GCCTATGCTGA),1.57
15,GCCTCGCCATGGACCGGTTTTCCCGGTAATCCGTATTTGCT (site GCCTCGCCTAG),0
16,GCCTCGCCATGGACCGGTTTTCCCGGTAATCCGTATTTGTA (site GCCACGCCTTA),0.00387
17,GCCTCGCCATGGACCGGTTTTCCCGGTAATCCGTATTTGTA (site GCCCCGCCTTA),0.633
18,GCCTCGCCATGGACCGGTTTTCCCGGTAATCCGTATTTGTA (site GCCGCGCCTTA),0.00878
19,GCCTCGCCATGGACCGGTTTTCCCGGTAATCCGTATTTGTA (site GCCTCGCCTTA),0.0151
20,GCCTGAACATGGACCGGTTTTCCCGGTAATCCGTATTTGCA (site GCCTGAACTTG),2.12
21,GCCTTATCATGGACCGGTTTTCCCGGTAATCCGTATTTGAA (site GCCTTATCTTT),0.731
22,GCGAAAACATGGACCGGTTTTCCCGGTAATCCGTATTTGCG (site GCGAAAACTAG),0
23,GCGAAAACATGGACCGGTTTTCCCGGTAATCCGTATTTGCG (site GCGAAAACTCG),2.63
24,GCGAAAACATGGACCGGTTTTCCCGGTAATCCGTATTTGCG (site GCGAAAACTGG),0
25,GCGAAAACATGGACCGGTTTTCCCGGTAATCCGTATTTGCG (site GCGAAAACTTG),0

row,Sequence,recombinant UMI read abundance (log10)
1,GCGAAAACATGGACCGGTTTTCCCGGTAATCCGTATTTGGT (site GCGAAAACTAA),0.0141
2,GCGAAAACATGGACCGGTTTTCCCGGTAATCCGTATTTGGT (site GCGAAAACTAC),1.58
3,GCGAAAACATGGACCGGTTTTCCCGGTAATCCGTATTTGGT (site GCGAAAACTAG),0
4,GCGAAAACATGGACCGGTTTTCCCGGTAATCCGTATTTGGT (site GCGAAAACTAT),0
5,GCGAAAGCATGGACCGGTTTTCCCGGTAATCCGTATTTGCT (site GCGAAAACTAG),0
6,GCGAAAGCATGGACCGGTTTTCCCGGTAATCCGTATTTGCT (site GCGAAACCTAG),0
7,GCGAAAGCATGGACCGGTTTTCCCGGTAATCCGTATTTGCT (site GCGAAAGCTAG),1.01
8,GCGAAAGCATGGACCGGTTTTCCCGGTAATCCGTATTTGCT (site GCGAAATCTAG),0
9,GCGAACACATGGACCGGTTTTCCCGGTAATCCGTATTTGCT (site GCGAAAACTAG),0
10,GCGAACACATGGACCGGTTTTCCCGGTAATCCGTATTTGCT (site GCGAACACTAG),1.91
11,GCGAACACATGGACCGGTTTTCCCGGTAATCCGTATTTGCT (site GCGAAGACTAG),0
12,GCGAACACATGGACCGGTTTTCCCGGTAATCCGTATTTGCT (site GCGAATACTAG),0.025
13,GCGAAGCCATGGACCGGTTTTCCCGGTAATCCGTATTTGTG (site GCGAAGCCTCA),0.643
14,GCGAAGCCATGGACCGGTTTTCCCGGTAATCCGTATTTGTG (site GCGAAGCCTCC),0.021
15,GCGAAGCCATGGACCGGTTTTCCCGGTAATCCGTATTTGTG (site GCGAAGCCTCG),0.0255
16,GCGAAGCCATGGACCGGTTTTCCCGGTAATCCGTATTTGTG (site GCGAAGCCTCT),1.98
17,GCGAAGCCATGGACCGGTTTTCCCGGTAATCCGTATTTGTT (site GCGAAGCCTAA),1.14
18,GCGACAACATGGACCGGTTTTCCCGGTAATCCGTATTTGCT (site GCGAAAACTAG),0
19,GCGACAACATGGACCGGTTTTCCCGGTAATCCGTATTTGCT (site GCGACAACTAG),1.97
20,GCGACAACATGGACCGGTTTTCCCGGTAATCCGTATTTGCT (site GCGAGAACTAG),0
21,GCGACAACATGGACCGGTTTTCCCGGTAATCCGTATTTGCT (site GCGATAACTAG),0.37
22,GCGACAACATGGACCGGTTTTCCCGGTAATCCGTATTTGGT (site GCGACAACTAC),2.46
23,GCGATTCCATGGACCGGTTTTCCCGGTAATCCGTATTTGTC (site GCGATTCCTGA),1.78
24,GCGCAGCCATGGACCGGTTTTCCCGGTAATCCGTATTTGGG (site GCGAAGCCTCC),0.0174
25,GCGCAGCCATGGACCGGTTTTCCCGGTAATCCGTATTTGGG (site GCGCAGCCTCC),0.00363
